Source: US20230212122A1, “MITOCHONDRIAL TARGETING COMPOUNDS FOR THE TREATMENT OF ASSOCIATED DISEASES” (The Regents of the University of Michigan, priority 2020, published 2023)

Tested on: UM16 cell line
Test: Nascent RNA sequencing (Bru-seq), gene fold change
Assay type: cell-based
Conditions: 5 μM, 4 hours
Excerpt: Consistent with this observation, there are also massive metabolite pathways influenced including starch and sucrose metabolism, glycolysis and gluconeogenesis, purine metabolism, pyrimidine metabolism, N-glycan biosynthesis, etc.

SMILES: CCOC(=O)[C@@H]1CCCN(S(=O)(=O)c2ccc(S(=O)(=O)N(CC)CC)cc2)C1 [DX2-201, ethyl (R)-1-((4-(N,N-diethylsulfamoyl)phenyl)sulfonyl)piperidine-3-carboxylate]
- Fold change AC008521.2 (non-coding RNA, downregulated): 0.1876
- Fold change AC019257.2 (non-coding RNA, downregulated): 0.2345
- Fold change AC091133.4 (non-coding RNA, downregulated): 0.2345
- Fold change AC092916.2 (non-coding RNA, downregulated): 0.1706
- Fold change AC106037.1 (non-coding RNA, downregulated): 0.2345
- Fold change AL096870.2 (non-coding RNA, downregulated): 0.02465
- Fold change BX679664.2 (non-coding RNA, downregulated): 0.1876
- Fold change C1orf50 (non-coding RNA, downregulated): 0.1876
- Fold change MIR545 (non-coding RNA, downregulated): 0.1876
- Fold change MIR5000 (non-coding RNA, downregulated): 0.05752
- Fold change RN7SL128P (non-coding RNA, downregulated): 0.1876
- Fold change RN7SL388P (non-coding RNA, downregulated): 0.2085
- Fold change RN7SL589P (non-coding RNA, downregulated): 0.2165
- Fold change RN7SL833P (non-coding RNA, downregulated): 0.2345
- Fold change RNU1-19P (non-coding RNA, downregulated): 0.1564
- Fold change RNU1-73P (non-coding RNA, downregulated): 0.09381
- Fold change RNU6-122P (non-coding RNA, downregulated): 0.04314
- Fold change RNU6-398P (non-coding RNA, downregulated): 0.03451
- Fold change RNU6-519P (non-coding RNA, downregulated): 0.1564
- Fold change RNU6-548P (non-coding RNA, downregulated): 0.05752
- Fold change SNORA73 (non-coding RNA, downregulated): 0.2345
- Fold change TERC (non-coding RNA, downregulated): 0.04314
- Fold change Y_RNA (non-coding RNA, downregulated): 0.02876
- Fold change Z99127.3 (non-coding RNA, downregulated): 0.1876
- Fold change ZBTB40-IT1 (non-coding RNA, downregulated): 0.2345
- Fold change AC007686.1 (non-coding RNA, upregulated): 2.01
- Fold change AC007952.4 (non-coding RNA, upregulated): 2.345
- Fold change AC008687.3 (non-coding RNA, upregulated): 2.033
- Fold change AC034198.2 (non-coding RNA, upregulated): 2.345
- Fold change AC105020.4 (non-coding RNA, upregulated): 1.782
- Fold change AC139887.1 (non-coding RNA, upregulated): 2.064
- Fold change AL136982.3 (non-coding RNA, upregulated): 2.217
- Fold change AL161729.3 (non-coding RNA, upregulated): 1.993
- Fold change AL627171.1 (non-coding RNA, upregulated): 1.841
- Fold change AL645939.5 (non-coding RNA, upregulated): 1.876
- Fold change AP001527.2 (non-coding RNA, upregulated): 2.217
- Fold change AP001619.1 (non-coding RNA, upregulated): 1.62
- Fold change AP003168.2 (non-coding RNA, upregulated): 1.689
- Fold change DPRXP4 (non-coding RNA, upregulated): 3.19
- Fold change EIF5AP3 (non-coding RNA, upregulated): 1.876
- Fold change HMGN1P15 (non-coding RNA, upregulated): 2.111
- Fold change RNA5SP379 (non-coding RNA, upregulated): 2.814
- Fold change RNU6-182P (non-coding RNA, upregulated): 20.4
- Fold change RNU6-396P (non-coding RNA, upregulated): 1.876
- Fold change RNU6-531P (non-coding RNA, upregulated): 2.814
- Fold change RNU6-564P (non-coding RNA, upregulated): 2.814
- Fold change RNU6-1272P (non-coding RNA, upregulated): 25.5
- Fold change RNY3P2 (non-coding RNA, upregulated): 1.876
- Fold change SNORD124 (non-coding RNA, upregulated): 1.876
- Fold change Y_RNA (non-coding RNA, upregulated): 15.3
- Fold change A2ML1 (protein-coding, downregulated): 0.582
- Fold change ARRDC4 (protein-coding, downregulated): 0.4315
- Fold change BDKRB2 (protein-coding, downregulated): 0.6044
- Fold change DGAT2 (protein-coding, downregulated): 0.5129
- Fold change DPAGT1 (protein-coding, downregulated): 0.6034
- Fold change FAM86C1 (protein-coding, downregulated): 0.6053
- Fold change FAM86HP (protein-coding, downregulated): 0.5946
- Fold change FAM200A (protein-coding, downregulated): 0.5595
- Fold change FOXA2 (protein-coding, downregulated): 0.6075
- Fold change G0S2 (protein-coding, downregulated): 0.4666
- Fold change GGCT (protein-coding, downregulated): 0.6012
- Fold change HLF (protein-coding, downregulated): 0.4727
- Fold change INTS5 (protein-coding, downregulated): 0.4515
- Fold change L3HYPDH (protein-coding, downregulated): 0.6301
- Fold change PCED1A (protein-coding, downregulated): 0.576
- Fold change PLLP (protein-coding, downregulated): 0.5843
- Fold change POLR2J4 (protein-coding, downregulated): 0.4775
- Fold change RRS1 (protein-coding, downregulated): 0.5686
- Fold change SCARNA5 (protein-coding, downregulated): 0.4376
- Fold change SLC5A6 (protein-coding, downregulated): 0.6234
- Fold change SNHG21 (protein-coding, downregulated): 0.5497
- Fold change SNORA62 (protein-coding, downregulated): 0.5968
- Fold change SNORA71C (protein-coding, downregulated): 0.6023
- Fold change TMED1 (protein-coding, downregulated): 0.6232
- Fold change TXNIP (protein-coding, downregulated): 0.4997
- Fold change ANKRD37 (protein-coding, upregulated): 2.182
- Fold change ARG2 (protein-coding, upregulated): 2.569
